US20050170392A1, “OAT3 transporters expressed in blood brain barrier cells” (priority 2004, published 2005)

How the values were obtained:
OAT3 = biological target: T1, OAT3 (Homo sapiens, UniProt Q8TCC7); conditions: cited from earlier work
T1 sequence (Q8TCC7 1-542): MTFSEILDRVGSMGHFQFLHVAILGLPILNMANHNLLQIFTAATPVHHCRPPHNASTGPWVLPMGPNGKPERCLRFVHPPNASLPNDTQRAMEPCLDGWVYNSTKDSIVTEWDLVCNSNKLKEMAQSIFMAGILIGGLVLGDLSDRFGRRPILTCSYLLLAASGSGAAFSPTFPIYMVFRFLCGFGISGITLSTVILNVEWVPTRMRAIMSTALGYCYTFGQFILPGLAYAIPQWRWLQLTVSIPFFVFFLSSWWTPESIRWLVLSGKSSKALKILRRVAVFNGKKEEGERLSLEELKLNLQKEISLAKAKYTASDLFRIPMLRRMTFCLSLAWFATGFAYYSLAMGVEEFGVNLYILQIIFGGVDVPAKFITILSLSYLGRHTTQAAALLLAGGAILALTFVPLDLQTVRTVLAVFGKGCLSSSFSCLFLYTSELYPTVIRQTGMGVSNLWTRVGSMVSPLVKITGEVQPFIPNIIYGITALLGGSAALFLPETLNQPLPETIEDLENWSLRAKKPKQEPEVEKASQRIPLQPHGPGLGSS

PgP = biological target: T2, PgP (Homo sapiens, UniProt P08183); test: Cellular transwell monolayer efflux assay, MDCK cells transfected with TREx-PgP; format: in vitro ADME
T2 construct: expressed in transfected cells; host or cells: MDCK cells
Experimental: A third type of efflux transporter assay is the cellular transwell monolayer efflux assay. […] The cells form a polarized monolayer. The transwell dishes have apical and basolateral chambers that are separated by the filter membrane on which the polarized monolayer is situated. Assays are performed by placing a test compound in either the apical or basolateral chamber, followed by sampling the opposite chamber after a predetermined period of time such as 60-120 minutes and measuring the amount of the test compound. The test compound can be measured by methods such as radiolabel detection or LC-MS-MS analysis. Assays are performed in the presence and absence of an efflux transporter inhibitor or competitor. Efflux transporter inhibitors or competitors increase apical to basolateral transport and decrease basolateral to apical transport of compounds that are efflux transporter substrates. Apparent permeability (Papp) of test compounds is measured. […] Test compounds that generate ratios between 1.5 and 2.0 require additional testing to determine if they are efflux transporter substrates.
MDCK cells transfected with the tetracycline-inducible TREx-PgP expression vector were seeded on polycarbonate filter membranes in transwell dishes and grown for 3-5 days, yielding a polarized monolayer with tight junctions between cells. […] The left set of bars depicts apical to basolateral transport, while the right set of bars depicts basolateral to apical transport.

[1] = 2.5 nM 3H-vinblastine, in the presence of 250 μM verapamil versus absence, FIG. 6

T2 sequence (P08183 whole entry): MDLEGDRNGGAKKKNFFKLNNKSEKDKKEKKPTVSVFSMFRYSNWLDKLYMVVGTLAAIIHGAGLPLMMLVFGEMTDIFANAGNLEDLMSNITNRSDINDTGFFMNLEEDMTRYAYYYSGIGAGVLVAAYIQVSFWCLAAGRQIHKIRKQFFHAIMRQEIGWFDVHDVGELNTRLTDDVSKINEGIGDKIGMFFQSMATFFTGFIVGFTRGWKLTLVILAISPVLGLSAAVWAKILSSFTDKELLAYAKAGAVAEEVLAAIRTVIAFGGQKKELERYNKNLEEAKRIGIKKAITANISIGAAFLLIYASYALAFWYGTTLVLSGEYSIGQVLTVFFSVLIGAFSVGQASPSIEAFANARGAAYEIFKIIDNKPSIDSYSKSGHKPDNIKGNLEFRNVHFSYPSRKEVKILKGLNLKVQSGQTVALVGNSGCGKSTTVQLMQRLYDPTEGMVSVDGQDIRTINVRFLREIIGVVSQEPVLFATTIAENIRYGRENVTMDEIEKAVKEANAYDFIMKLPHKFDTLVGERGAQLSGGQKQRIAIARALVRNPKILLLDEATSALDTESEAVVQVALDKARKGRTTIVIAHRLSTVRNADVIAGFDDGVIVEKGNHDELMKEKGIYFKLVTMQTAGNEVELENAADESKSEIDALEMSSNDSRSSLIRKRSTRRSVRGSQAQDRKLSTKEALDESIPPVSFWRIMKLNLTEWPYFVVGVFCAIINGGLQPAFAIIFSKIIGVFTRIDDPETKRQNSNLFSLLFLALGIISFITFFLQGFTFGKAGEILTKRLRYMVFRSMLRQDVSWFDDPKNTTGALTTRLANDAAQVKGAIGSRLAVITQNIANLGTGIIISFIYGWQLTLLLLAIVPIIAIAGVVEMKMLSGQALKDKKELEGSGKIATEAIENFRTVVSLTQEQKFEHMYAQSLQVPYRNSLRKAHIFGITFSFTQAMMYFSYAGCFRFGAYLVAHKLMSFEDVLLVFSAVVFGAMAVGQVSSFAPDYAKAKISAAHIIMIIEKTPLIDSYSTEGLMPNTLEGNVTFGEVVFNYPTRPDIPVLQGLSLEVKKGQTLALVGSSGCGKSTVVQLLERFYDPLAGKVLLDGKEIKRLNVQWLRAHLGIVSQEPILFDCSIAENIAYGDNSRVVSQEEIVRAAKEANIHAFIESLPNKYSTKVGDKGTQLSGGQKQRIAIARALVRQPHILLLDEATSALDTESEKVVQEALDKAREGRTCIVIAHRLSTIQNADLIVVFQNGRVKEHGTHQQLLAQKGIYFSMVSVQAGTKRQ

| Compound | Reported Affinity for OAT3 (OAT3) [mM] | apical to basolateral transport (PgP; [1]) | basolateral to apical transport (PgP; [1]) | efflux transporter substrate status (PgP; conclusion from transwell transport with and without verapamil) |
| --- | --- | --- | --- | --- |
| CC1(C)S[C@@H]2[C@H](NC(=O)Cc3ccccc3)C(=O)N2[C@H]1C(=O)O [Benzylpennicillin] | 0.3 |  |  |  |
| C[C@]12CC[C@@H]3c4ccc(OS(=O)(=O)O)cc4CC[C@H]3[C@@H]1CCC2=O [Estrone-3-sulphate] | 0.04 |  |  |  |
| C[C@@H]1Cc2c(Cl)cc(C(=O)N[C@@H](Cc3ccccc3)C(=O)O)c(O)c2C(=O)O1 [Ochratoxin A] | 0.05 |  |  |  |
| CCCN(CCC)S(=O)(=O)c1ccc(C(=O)O)cc1 [Probenecid] | 0.05 |  |  |  |
| CC[C@]1(O)C[C@@H]2CN(CCc3c([nH]c4ccccc34)[C@@](C(=O)OC)(c3cc4c(cc3OC)N(C)[C@H]3[C@@](O)(C(=O)OC)[C@H](OC(C)=O)[C@]5(CC)C=CCN6CC[C@]43[C@@H]65)C2)C1 [^3H-vinblastine, vinblastine] |  | strongly increased | strongly decreased | substrate of PgP |
